The values that follow come from patent publication US9708314B2, “Heterocyclic amide compound” (NISSAN CHEMICAL INDUSTRIES, LTD., priority 2013, dated 2017).

Each structure is given as a SMILES string.

What all share (format): in vivo
Experiment [1] deals with Echinochloa crus-galli var. crus-galli. Briefly: Test Example 3: herbicidal effect by application to foliage (Wagner pot, water depth 0.1-0.5 cm). The note with it: Nineteenth Table; application to foliage; application herbicide amount 320 g/ha. In outline:
(§1)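 Wagner pot foliar test: sow, grow 14 d (25–30 °C), spray diluted emulsion at set g/ha, score after 3 wk; 0 ≤5%, 5 ≥90% herbicidal ratio.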

Experiment [2] has as its system Leptochloa chinensis. The description is as above. The note with it: Nineteenth Table; application to foliage; application herbicide amount 320 g/ha. The method in brief: as §1
For experiment [3], the system named is Cyperus difformis. The description is as above. Particulars: Nineteenth Table; application to foliage; application herbicide amount 320 g/ha. The method in brief:
as §1

Experiment [4] concerns Echinochloa oryzacola Vasing. The experiment is described as follows: Test Example 1: herbicidal activity, application before weed generation in submerged conditions. Particulars: Seventeenth Table; for A: Echinochloa oryzicola Vasing. (herbicidal effect grade): Application herbicide amount 320 g/ha. In outline:
(§2)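 Alluvial soil in Wagner pots flooded to 4 cm water depth; weed seeds sown and 2.5 leaf stage rice seedlings transplanted. Emulsion diluted in water applied to water surface on sowing day at stated g/ha. Greenhouse 25° C. to 30° C.; effects scored 0–5 by herbicidal ratio after three weeks.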

Experiment [5] deals with Scirpus juncoides. Described as above. Particulars: Seventeenth Table; for B: Scirpus juncoides (herbicidal effect grade): Application herbicide amount 320 g/ha. In outline: as §2
The subject of experiment [6] is Monochoria vaginalis. The experiment is described as above. Particulars: Seventeenth Table; for C: Monochoria vaginalis (herbicidal effect grade): Application herbicide amount 320 g/ha. In outline: as §2
Where [7] appears, read: application herbicide amount 320 g/ha.

`COc1ccc(CSc2nnc3c(C(=O)Nc4nnnn4C)ccc(C(F)(F)F)n23)cc1` [2-077]: the “H (herbicidal effect grade)” value in experiment [1] is 2 (Herbicidal ratio of 20% or more and less than 40%). Also, in experiment [2], the “D (herbicidal effect grade)” value was 4 (Herbicidal ratio of 70% or more and less than 90%). Further, the “E (herbicidal effect grade)” value in experiment [3] was 3 (Herbicidal ratio of 40% or more and less than 70%). In addition, the “A: Echinochloa oryzicola Vasing. (herbicidal effect grade)” value in experiment [4] is given as 5 (Herbicidal ratio of 90% or more (almost completely withered)). The “B: Scirpus juncoides (herbicidal effect grade)” value (shortened to “B: Scirpus juncoides”) in experiment [5] is 3 (Herbicidal ratio of 40% or more and less than 70%). Also, in experiment [6], the “C: Monochoria vaginalis (herbicidal effect grade)” value (shortened to “C: Monochoria vaginalis”) was 3 (Herbicidal ratio of 40% or more and less than 70%).
In the case of `COCCN(C)c1nnc2c(C(=O)Nc3nnnn3C)ccc(C(F)(F)F)n12` [2-079], the “H (herbicidal effect grade)” value in experiment [1] is 5 (Herbicidal ratio of 90% or more (almost completely withered)). For the same compound, in experiment [2], the “D (herbicidal effect grade)” value is 5 (Herbicidal ratio of 90% or more (almost completely withered)). For the same compound, in experiment [3], the “E (herbicidal effect grade)” value is listed as 5 (Herbicidal ratio of 90% or more (almost completely withered)). In addition, the “A: Echinochloa oryzicola Vasing. (herbicidal effect grade)” value in experiment [4] was 5 (Herbicidal ratio of 90% or more (almost completely withered)). In addition, the “B: Scirpus juncoides” value in experiment [5] is 5 (Herbicidal ratio of 90% or more (almost completely withered)). Also, in experiment [6], the “C: Monochoria vaginalis” value is listed as 5 (Herbicidal ratio of 90% or more (almost completely withered)).
Take `CCC[S+]([O-])c1nnc2c(C(=O)Nc3nnnn3C)ccc(C(F)(F)F)n12` (stereo not drawn) [2-069]: the “H (herbicidal effect grade)” value in experiment [1] was 5 (Herbicidal ratio of 90% or more (almost completely withered)). In experiment [2], the “D (herbicidal effect grade)” value was 5 (Herbicidal ratio of 90% or more (almost completely withered)). Moreover, the “E (herbicidal effect grade)” value in experiment [3] was 5 (Herbicidal ratio of 90% or more (almost completely withered)). The “A: Echinochloa oryzicola Vasing. (herbicidal effect grade)” value in experiment [4] was 5 (Herbicidal ratio of 90% or more (almost completely withered)). Further, the “B: Scirpus juncoides” value in experiment [5] was 5 (Herbicidal ratio of 90% or more (almost completely withered)). In experiment [6], the “C: Monochoria vaginalis” value is listed as 5 (Herbicidal ratio of 90% or more (almost completely withered)).
Regarding `Cn1nnnc1NC(=O)c1ccc(C(F)(F)F)n2c(=O)n(C)nc12` [6-002], the “H (herbicidal effect grade)” value in experiment [1] is listed as 5 (Herbicidal ratio of 90% or more (almost completely withered)). The “D (herbicidal effect grade)” value in experiment [2] is given as 5 (Herbicidal ratio of 90% or more (almost completely withered)). Besides, the “E (herbicidal effect grade)” value in experiment [3] is 4 (Herbicidal ratio of 70% or more and less than 90%). In addition, in experiment [4] (setting [7]), the “A (Echinochloa oryzicola Vasing.) herbicidal ratio grade” value is 4 (Herbicidal ratio of 70% or more and less than 90%). The “B (Scirpus juncoides) herbicidal ratio grade” value in experiment [5] (setting [7]) was 3 (Herbicidal ratio of 40% or more and less than 70%). In experiment [6] (setting [7]), the “C (Monochoria vaginalis) herbicidal ratio grade” value is 2 (Herbicidal ratio of 20% or more and less than 40%).
Turning to `COc1ccc(Cc2nnc3c(C(=O)Nc4nnnn4C)ccc(C(F)(F)F)n23)cc1` [2-065], the “H (herbicidal effect grade)” value in experiment [1] is reported as 5 (Herbicidal ratio of 90% or more (almost completely withered)). The “D (herbicidal effect grade)” value in experiment [2] is 5 (Herbicidal ratio of 90% or more (almost completely withered)). Moreover, the “E (herbicidal effect grade)” value in experiment [3] is given as 5 (Herbicidal ratio of 90% or more (almost completely withered)). In experiment [4], the “A: Echinochloa oryzicola Vasing. (herbicidal effect grade)” value is recorded as 5 (Herbicidal ratio of 90% or more (almost completely withered)). Moreover, the “B: Scirpus juncoides” value in experiment [5] was 4 (Herbicidal ratio of 70% or more and less than 90%). The “C: Monochoria vaginalis” value in experiment [6] is 4 (Herbicidal ratio of 70% or more and less than 90%).
Consider `CN(c1nnc2c(C(=O)Nc3nnnn3C)ccc(C(F)(F)F)n12)C1CCCCC1` [2-083], for which the “H (herbicidal effect grade)” value in experiment [1] was 4 (Herbicidal ratio of 70% or more and less than 90%). For the same compound, the “D (herbicidal effect grade)” value in experiment [2] is 4 (Herbicidal ratio of 70% or more and less than 90%). Further, the “E (herbicidal effect grade)” value in experiment [3] was 5 (Herbicidal ratio of 90% or more (almost completely withered)). In addition, the “A: Echinochloa oryzicola Vasing. (herbicidal effect grade)” value in experiment [4] is on record as 5 (Herbicidal ratio of 90% or more (almost completely withered)). Also, the “B: Scirpus juncoides” value in experiment [5] is 5 (Herbicidal ratio of 90% or more (almost completely withered)). Besides, the “C: Monochoria vaginalis” value in experiment [6] was 4 (Herbicidal ratio of 70% or more and less than 90%).
In the case of `Cn1nnnc1NC(=O)c1ccc(C(F)(F)F)n2c(SCC#N)nnc12` [2-086], the “H (herbicidal effect grade)” value in experiment [1] is on record as 5 (Herbicidal ratio of 90% or more (almost completely withered)). In addition, in experiment [2], the “D (herbicidal effect grade)” value is reported as 5 (Herbicidal ratio of 90% or more (almost completely withered)). Further, in experiment [3], the “E (herbicidal effect grade)” value is 4 (Herbicidal ratio of 70% or more and less than 90%). For the same compound, the “A: Echinochloa oryzicola Vasing. (herbicidal effect grade)” value in experiment [4] was 3 (Herbicidal ratio of 40% or more and less than 70%). In experiment [5], the “B: Scirpus juncoides” value is 2 (Herbicidal ratio of 20% or more and less than 40%). Moreover, the “C: Monochoria vaginalis” value in experiment [6] is 3 (Herbicidal ratio of 40% or more and less than 70%).
Regarding `C=CCn1nnnc1NC(=O)c1ccc(C(F)(F)F)n2c(C(C)C)nnc12` [2-091], the “H (herbicidal effect grade)” value in experiment [1] is 5 (Herbicidal ratio of 90% or more (almost completely withered)). Besides, in experiment [2], the “D (herbicidal effect grade)” value was 3 (Herbicidal ratio of 40% or more and less than 70%). For the same compound, the “E (herbicidal effect grade)” value in experiment [3] was 4 (Herbicidal ratio of 70% or more and less than 90%). The “A: Echinochloa oryzicola Vasing. (herbicidal effect grade)” value in experiment [4] is reported as 5 (Herbicidal ratio of 90% or more (almost completely withered)). In addition, the “B: Scirpus juncoides” value in experiment [5] is listed as 5 (Herbicidal ratio of 90% or more (almost completely withered)). For the same compound, the “C: Monochoria vaginalis” value in experiment [6] is given as 5 (Herbicidal ratio of 90% or more (almost completely withered)).
As for `Cn1nnnc1NC(=O)c1ccc(C(F)(F)F)n2c(-c3ccc(Cl)nc3)nnc12` [2-060], in experiment [1], the “H (herbicidal effect grade)” value was 5 (Herbicidal ratio of 90% or more (almost completely withered)). The “D (herbicidal effect grade)” value in experiment [2] is on record as 5 (Herbicidal ratio of 90% or more (almost completely withered)). For the same compound, the “E (herbicidal effect grade)” value in experiment [3] is given as 5 (Herbicidal ratio of 90% or more (almost completely withered)). Besides, the “A: Echinochloa oryzicola Vasing. (herbicidal effect grade)” value in experiment [4] is listed as 5 (Herbicidal ratio of 90% or more (almost completely withered)). Further, the “B: Scirpus juncoides” value in experiment [5] is 5 (Herbicidal ratio of 90% or more (almost completely withered)). In addition, in experiment [6], the “C: Monochoria vaginalis” value is reported as 5 (Herbicidal ratio of 90% or more (almost completely withered)).
On to `CC(C)c1nnc2c(C(=O)Nc3nnnn3-c3ccccc3)ccc(C(F)(F)F)n12` [2-073], for which the “H (herbicidal effect grade)” value in experiment [1] is 4 (Herbicidal ratio of 70% or more and less than 90%). The “D (herbicidal effect grade)” value in experiment [2] was 3 (Herbicidal ratio of 40% or more and less than 70%). For the same compound, the “E (herbicidal effect grade)” value in experiment [3] is 5 (Herbicidal ratio of 90% or more (almost completely withered)). In addition, the “A: Echinochloa oryzicola Vasing. (herbicidal effect grade)” value in experiment [4] was 4 (Herbicidal ratio of 70% or more and less than 90%). The “B: Scirpus juncoides” value in experiment [5] is 3 (Herbicidal ratio of 40% or more and less than 70%). Further, the “C: Monochoria vaginalis” value in experiment [6] is 4 (Herbicidal ratio of 70% or more and less than 90%).
On to `Cc1cc(-c2nnc3c(C(=O)Nc4nnnn4C)ccc(C(F)(F)F)n23)n(C)n1` [2-062], for which the “H (herbicidal effect grade)” value in experiment [1] is recorded as 5 (Herbicidal ratio of 90% or more (almost completely withered)). Also, the “D (herbicidal effect grade)” value in experiment [2] is reported as 5 (Herbicidal ratio of 90% or more (almost completely withered)). The “E (herbicidal effect grade)” value in experiment [3] was 5 (Herbicidal ratio of 90% or more (almost completely withered)). Also, the “A: Echinochloa oryzicola Vasing. (herbicidal effect grade)” value in experiment [4] is reported as 5 (Herbicidal ratio of 90% or more (almost completely withered)). Also, in experiment [5], the “B: Scirpus juncoides” value is 5 (Herbicidal ratio of 90% or more (almost completely withered)). Further, the “C: Monochoria vaginalis” value in experiment [6] is reported as 5 (Herbicidal ratio of 90% or more (almost completely withered)).
`Cn1nnnc1NC(=O)c1ccc(C(F)(F)F)n2c(CCS(C)(=O)=O)nnc12` [2-059]: the “H (herbicidal effect grade)” value in experiment [1] is recorded as 5 (Herbicidal ratio of 90% or more (almost completely withered)). Moreover, the “D (herbicidal effect grade)” value in experiment [2] was 5 (Herbicidal ratio of 90% or more (almost completely withered)). In addition, in experiment [3], the “E (herbicidal effect grade)” value was 5 (Herbicidal ratio of 90% or more (almost completely withered)). Besides, in experiment [4], the “A: Echinochloa oryzicola Vasing. (herbicidal effect grade)” value was 4 (Herbicidal ratio of 70% or more and less than 90%). Besides, the “B: Scirpus juncoides” value in experiment [5] is 4 (Herbicidal ratio of 70% or more and less than 90%). Besides, the “C: Monochoria vaginalis” value in experiment [6] is 4 (Herbicidal ratio of 70% or more and less than 90%).
Regarding `Cn1nnnc1NC(=O)c1ccc(C(F)(F)F)n2c(-c3cccs3)nnc12` [2-061], the “H (herbicidal effect grade)” value in experiment [1] is recorded as 5 (Herbicidal ratio of 90% or more (almost completely withered)). Further, the “D (herbicidal effect grade)” value in experiment [2] is 5 (Herbicidal ratio of 90% or more (almost completely withered)). In addition, the “E (herbicidal effect grade)” value in experiment [3] is 5 (Herbicidal ratio of 90% or more (almost completely withered)). For the same compound, in experiment [4], the “A: Echinochloa oryzicola Vasing. (herbicidal effect grade)” value was 5 (Herbicidal ratio of 90% or more (almost completely withered)). The “B: Scirpus juncoides” value in experiment [5] is reported as 5 (Herbicidal ratio of 90% or more (almost completely withered)). Moreover, in experiment [6], the “C: Monochoria vaginalis” value was 5 (Herbicidal ratio of 90% or more (almost completely withered)).
